# Where a name gives a salt, the structure may show the parent alone.
# Tests used:
# [1] = test system: Bone marrow-derived macrophages (BMDMs); test: LPS-nigericin inflammasome activation/pyroptosis in BMDMs; type: cell-based, mouse; conditions: for kinetic cell death: SYTOX orange, 0-6 hrs
# Method: Human kidney cell line HEK293T was cultured in Dulbecco's modified Eagle's medium supplemented with 10% (v/v) fetal bovine serum, 100 U/ml penicillin and 100 µg/ml streptomycin. Human peripheral blood monocyte cell line, THP1 cells were cultured in RPMI-1640 medium supplemented with 10% (v/v) fetal bovine serum, 100 U/ml penicillin and 100 µg/ml streptomycin. For isolation of BMDMs, tibias and femurs were removed from wild type and GsdmD^−/− mice and bone marrow was flushed with complete DMEM-medium. Cells were plated in medium containing 20% (v/v) conditioned medium of L929 mouse fibroblasts cultured for 7 days at 37° C. in a humidified atmosphere of 5% C02. Medium was replaced every 3 days.
# Conditioned media or serum was collected as indicated and IL-1β or TNF-α, were quantified by sandwich ELISA (R&D Systems).
# Cells were plated, treated and incubated in phenol red free medium. Following treatment medium was collected and assessed for LDH release using the CytoTox96 non-radioactive cytotoxicity assay (Promega) as per manufacturer's instructions. Kinetic cell death assays were performed using SytoxOrange and the Biotek Cytation5.
# For noncanonical inflammasome activation, cells were primed with […] Pam3CSK4 (Invivogen) for 2 h, followed by transfection of LPS (2 μg/ml) using Lipofectamine 2000 for 16 hours.
# Primary BMDMs from WT or GsdmD^−/− mice were cultured in 12-well plates (1×10^6 cells per ml; 1 ml) or 10 cm dishes (2×10^6 cells per ml; 10 ml). HEK293T cells (2.5×10^5 cells per ml; 3 ml) were cultured in 6-well plates and transfected with FLAG-tagged GSDMD constructs where indicated. For cell lysate analysis cells were lysed directly in 1× Lamelli sample buffer. For native gel analysis cells were lysed in NP-40 lysis buffer (50 mM Tris-HCl, pH 7.4, containing 150 mM NaCl, 0.5% (w/v) IgePal, 50 mM NaF, 1 mM Na3VO4, 1 mM dithiothreitol, 1 mM phenylmethylsulfonyl fluoride and protease inhibitor cocktail. For immunoprecipitation of GSDMD, cells were treated as indicated and then collected in 500 μl RIPA buffer, followed by incubation for 15 min on ice. Lysates were incubated with GSDMD antibody and protein A-protein G-agarose was added to each sample, followed by incubation overnight at 4° C. Immunoprecipitates were collected by centrifugation and washed four times with 1 ml of RIPA buffer. Immunprecipates were eluted from beads using 1× sample buffer. Samples were resolved by SDS-PAGE and stained using simply blue safe stain or transferred to nitrocellulose membranes and analyzed by immunoblot. Immunoreactivity was visualized by the Odyssey Imaging System (LICOR Biosciences). For immunoblotting of IL-1β in cell supernatants, conditioned medium was collected and filtered using filter spin columns to reduce salt and remove abundant serum proteins. Filtrates were added to 4×SDS-PAGE sample buffer and resolved by SDS-PAGE for immunoblot analysis. GSDMD (ab209845) and GSDME antibodies were from abcam (ab215191). Caspase 1 antibody was from adipogen. Fumarase antibody was from cell signalling and anti-β-actin (AC-15; A1978) were from Sigma; anti-mouse IRDye™ 680 (926-68070) and anti-rabbit IRDye™ 800 (926-32211) were from LI-COR Biosciences.
# Numerous studies have shown that cell metabolism impacts inflammatory responses. LPS activated macrophages switch from oxidative phosphorylation to aerobic glycolysis. Krebs cycle intermediates such as succinate and itaconate accumulate and moonlight as positive and negative regulators of inflammatory gene expression (3-8). To determine if Krebs cycle intermediates modulate pyroptosis, we tested their effect on inflammasome responses. Bone marrow-derived macrophages (BMDMs) were primed with LPS (2 hr) before being exposed to metabolites and then exposed to nigericin (Nig) and inflammasome activation/pyroptosis measured. The metabolites were added after LPS to avoid any impact on transcription. […] Fumarate impaired kinetic cell death (0-6 hrs) (FIG. 1E, FIG. 5A). […]
# [2] = test system: GSDMD-deficient THP1 cells; test: Kinetic cell death in GSDMD-/- THP1 cells; type: cell-based, human
# Source text: FIGS. 3A-J. Fumarate targets GSDMD and Gasdermin E (GSDME). Kinetic cell death of WT and Gsdmd-BMDMs (A) or WT/GSDMD^-/- THP1 cells (B) treated as indicated. LDH and IL-1β release from WT and Gsdmd^-/- BMDMs (C-D). Immunoblot of GSDMD and GSDME in native and reduced cell lysates from BMDMs (E). Immunoblot of GSDME in streptavidin pulldown from clicked lysates (F). Representative Mass spectra of succinated GSDME (G-H). Immunoblot analysis of GSDMD and GSDME from WT and […]^-/- BMDMs (I). A, B representative of three independent experiments. C, D, I pooled data from three independent experiments. E, F, J representative images from 3 independent experiments. ***, P<0.0001, […] (Two-way ANOVA). Error bars show means±SEM. Cells were plated, treated and incubated in phenol red free medium. Following treatment medium was collected and assessed for LDH release using the CytoTox96 non-radioactive cytotoxicity assay (Promega) as per manufacturer's instructions. Kinetic cell death assays were performed using SytoxOrange and the Biotek Cytation5.
# m.GSDMD = molecular target: T1, m.GSDMD (Mus musculus, UniProt Q9D8T2); test: In vitro succination reaction with LC-MS/MS peptide mapping; type: binding; conditions: recombinant m.GSDMD
# T1 sequence (Q9D8T2 1-487): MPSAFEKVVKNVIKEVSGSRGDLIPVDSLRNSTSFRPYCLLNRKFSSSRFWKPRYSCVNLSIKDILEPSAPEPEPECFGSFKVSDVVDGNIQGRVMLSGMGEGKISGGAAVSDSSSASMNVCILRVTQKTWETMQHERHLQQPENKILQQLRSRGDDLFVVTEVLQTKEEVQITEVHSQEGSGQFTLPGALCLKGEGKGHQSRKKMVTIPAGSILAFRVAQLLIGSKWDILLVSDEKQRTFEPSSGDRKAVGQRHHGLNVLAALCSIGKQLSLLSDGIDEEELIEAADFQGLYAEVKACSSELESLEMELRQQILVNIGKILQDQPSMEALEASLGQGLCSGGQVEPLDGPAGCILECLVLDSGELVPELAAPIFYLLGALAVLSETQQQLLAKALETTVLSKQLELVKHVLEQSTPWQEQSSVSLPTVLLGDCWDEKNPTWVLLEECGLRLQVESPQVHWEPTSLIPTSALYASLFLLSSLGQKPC
smiles,measurement,setting,value
"COC(=O)/C=C/C(=O)OC [Fumarate, Dimethyl fumarate]",GSDMD oligomerization,"[1]; BMDMs pre-treated, LPS-Nig, native and reduced lysates",decreased
same,LPS-Nig-induced release of LDH,"[1]; WT BMDMs, LPS 2 hr, compound 1 hour (fumarate 25 μM), then nigericin",potently blocked
same,LPS-Nig-induced release of IL-1β,"[1]; WT BMDMs, LPS 2 hr, compound 1 hour (fumarate 25 μM), then nigericin, ELISA",potently blocked
same,kinetic cell death,"[1]; WT BMDMs, LPS-Nig",impaired
same,kinetic cell death,"[1]; WT BMDMs, LPS-Nig, listed as fumarate",inhibited cell death
same,formation of GSDMD-N,"[1]; WT BMDMs, LPS-Nig, immunoblot",blocked
same,cell death when added after Nig treatment,"[1]; WT BMDMs, fumarate 25 μM 15 minutes after each nigericin timepoint",impaired
same,cell death,[2],inhibited cell death
same,In vitro cysteine succination sites,m.GSDMD,same cysteines

# — patent US20230233500A1, “Gasdermin D (GSDMD) Succination for the Treatment of Inflammatory Disease” (University of Massachusetts, priority 2020, published 2023)
